{
  "source": "patent US20100055179A1",
  "about": "“Composition of and Method for Preparing Orally Disintegrating Tablets Containing a High Dose of Pharmaceutically Active Ingredients” (MALLINCKRODT INC., priority 2006, published 2010)",
  "type_in_all_cases": "physicochemical",
  "key": {"[1]": {"assay": "Wetting test (simulated in vivo disintegration time)", "protocol": "(4) Wetting Test-One Whatman filter disc (21 mm in diameter) was placed in each well of a Corning 12-well polystyrene microplate (22 mm in diameter). One and a half […] of Sensient Blue #1 dye solution (similar to in vivo conditions-tongue surface) was then added into each well. An ODT tablet was carefully placed on the surface of the wet paper disc in each well using a pair of forceps, tablet face flat on the filter paper. Finally, the total wetting time was recorded as the time required for the blue dye solution to cover the surface of the tablet as simulated in vivo disintegration time."}, "[2]": {"assay": "In vitro disintegration test (USP Test No. 701)", "protocol": "(3) In vitro disintegration test-The disintegration time of the tablets was determined according to U.S. Pharmacopeia, Test No. 701."}, "[3]": {"assay": "Friability test (USP <1216>)", "protocol": "(2) Friability test-The friability test method was performed by a Varian Friabilator according to the USP tablet friability method described in <1216> Tablet Friability of the General chapters describing General Test Assays."}, "[4]": {"assay": "Hardness test (tablet crushing load, Varian VK-200)", "protocol": "(1) Hardness test-The ODT tablet crushing load, which is the force (kilopond, kP) required to break a tablet into halves by compression in the diametral direction, was measured with a hardness tester (Varian Hardness Tester, VK-200)."}, "[5]": {"conditions": "0.3% (w/w) APAP as COMPAP with Formulation A granules, Example 4"}, "[6]": {"conditions": "0.3% (w/w) regular APAP blended with Formulation A granules, 400 mg tablet, Example 2"}, "[7]": {"conditions": "0.3% (w/w) regular APAP wet-granulated with Formulation A, Example 3"}, "[8]": {"conditions": "1.0% (w/w) APAP as COMPAP with Formulation A granules, Example 4"}, "[9]": {"conditions": "1.0% (w/w) regular APAP blended with Formulation A granules, 400 mg tablet, Example 2"}, "[10]": {"conditions": "1.0% (w/w) regular APAP wet-granulated with Formulation A, Example 3"}, "[11]": {"conditions": "10.0% (w/w) APAP as COMPAP with Formulation A granules, Example 4"}, "[12]": {"conditions": "10.0% (w/w) regular APAP blended with Formulation A granules, 400 mg tablet, Example 2"}, "[13]": {"conditions": "10.0% (w/w) regular APAP wet-granulated with Formulation A, Example 3"}, "[14]": {"conditions": "15.0% (w/w) regular APAP blended with Formulation A granules, 400 mg tablet, Example 2"}, "[15]": {"conditions": "20.0% (w/w) APAP as COMPAP with Formulation A granules, Example 4"}, "[16]": {"conditions": "20.0% (w/w) regular APAP wet-granulated with Formulation A, Example 3"}, "[17]": {"conditions": "30.0% (w/w) APAP as COMPAP with Formulation A granules, Example 4"}, "[18]": {"conditions": "30.0% (w/w) regular APAP wet-granulated with Formulation A, Example 3"}, "[19]": {"conditions": "40.0% (w/w) APAP as COMPAP with Formulation A granules, Example 4"}, "[20]": {"conditions": "50.0% (w/w) APAP as COMPAP with Formulation A granules, Example 4"}},
  "data": [
    {"smiles": "CC(=O)Nc1ccc(O)cc1", "note": "[APAP, Acetaminophen]", "values": [
      {"measurement": "Wetting time", "setting": "[1]; [5]", "result": 15, "unit": "s"},
      {"measurement": "Wetting time", "setting": "[1]; [6]", "result": 12, "unit": "s"},
      {"measurement": "Wetting time", "setting": "[1]; [7]", "result": 18, "unit": "s"},
      {"measurement": "Wetting time", "setting": "[1]; [8]", "result": 16, "unit": "s"},
      {"measurement": "Wetting time", "setting": "[1]; [9]", "result": 11, "unit": "s"},
      {"measurement": "Wetting time", "setting": "[1]; [10]", "result": 21, "unit": "s"},
      {"measurement": "Wetting time", "setting": "[1]; [11]", "result": 22, "unit": "s"},
      {"measurement": "Wetting time", "setting": "[1]; [12]", "result": 10, "unit": "s"},
      {"measurement": "Wetting time", "setting": "[1]; [13]", "result": 30, "unit": "s"},
      {"measurement": "Wetting time", "setting": "[1]; [14]", "result": 9, "unit": "s"},
      {"measurement": "Wetting time", "setting": "[1]; [15]", "result": 30, "unit": "s"},
      {"measurement": "Wetting time", "setting": "[1]; [16]", "result": 25, "unit": "s"},
      {"measurement": "Wetting time", "setting": "[1]; [17]", "result": 45, "unit": "s"},
      {"measurement": "Wetting time", "setting": "[1]; [18]", "result": 21, "unit": "s"},
      {"measurement": "Wetting time", "setting": "[1]; [19]", "result": 65, "unit": "s"},
      {"measurement": "Wetting time", "setting": "[1]; [20]", "result": 117, "unit": "s"},
      {"measurement": "USP-DIT (in vitro disintegration time, USP method)", "setting": "[2]; [5]", "result": 26, "unit": "s"},
      {"measurement": "USP-DIT (in vitro disintegration time, USP method)", "setting": "[2]; [6]", "result": 18, "unit": "s"},
      {"measurement": "USP-DIT (in vitro disintegration time, USP method)", "setting": "[2]; [7]", "result": 12, "unit": "s"},
      {"measurement": "USP-DIT (in vitro disintegration time, USP method)", "setting": "[2]; [8]", "result": 15, "unit": "s"},
      {"measurement": "USP-DIT (in vitro disintegration time, USP method)", "setting": "[2]; [9]", "result": 20, "unit": "s"},
      {"measurement": "USP-DIT (in vitro disintegration time, USP method)", "setting": "[2]; [10]", "result": 12, "unit": "s"},
      {"measurement": "USP-DIT (in vitro disintegration time, USP method)", "setting": "[2]; [11]", "result": 11, "unit": "s"},
      {"measurement": "USP-DIT (in vitro disintegration time, USP method)", "setting": "[2]; [12]", "result": 9, "unit": "s"},
      {"measurement": "USP-DIT (in vitro disintegration time, USP method)", "setting": "[2]; [13]", "result": 18, "unit": "s"},
      {"measurement": "USP-DIT (in vitro disintegration time, USP method)", "setting": "[2]; [14]", "result": 10, "unit": "s"},
      {"measurement": "USP-DIT (in vitro disintegration time, USP method)", "setting": "[2]; [15]", "result": 11, "unit": "s"},
      {"measurement": "USP-DIT (in vitro disintegration time, USP method)", "setting": "[2]; [16]", "result": 19, "unit": "s"},
      {"measurement": "USP-DIT (in vitro disintegration time, USP method)", "setting": "[2]; [17]", "result": 16, "unit": "s"},
      {"measurement": "USP-DIT (in vitro disintegration time, USP method)", "setting": "[2]; [18]", "result": 28, "unit": "s"},
      {"measurement": "USP-DIT (in vitro disintegration time, USP method)", "setting": "[2]; [19]", "result": 16, "unit": "s"},
      {"measurement": "USP-DIT (in vitro disintegration time, USP method)", "setting": "[2]; [20]", "result": 16, "unit": "s"},
      {"measurement": "Friability", "setting": "[3]; [5]", "result": 0.5, "unit": "%"},
      {"measurement": "Friability", "setting": "[3]; [6]", "result": 0.02, "unit": "%"},
      {"measurement": "Friability", "setting": "[3]; [7]", "result": 0.3, "unit": "%"},
      {"measurement": "Friability", "setting": "[3]; [8]", "result": 0.3, "unit": "%"},
      {"measurement": "Friability", "setting": "[3]; [9]", "result": 0.03, "unit": "%"},
      {"measurement": "Friability", "setting": "[3]; [10]", "result": 0.2, "unit": "%"},
      {"measurement": "Friability", "setting": "[3]; [11]", "result": 0.5, "unit": "%"},
      {"measurement": "Friability", "setting": "[3]; [12]", "result": 0.46, "unit": "%"},
      {"measurement": "Friability", "setting": "[3]; [13]", "result": 0.0, "unit": "%"},
      {"measurement": "Friability", "setting": "[3]; [14]", "result": 0.08, "unit": "%"},
      {"measurement": "Friability", "setting": "[3]; [15]", "result": 0.0, "unit": "%"},
      {"measurement": "Friability", "setting": "[3]; [16]", "result": 0.2, "unit": "%"},
      {"measurement": "Friability", "setting": "[3]; [17]", "result": 0.5, "unit": "%"},
      {"measurement": "Friability", "setting": "[3]; [18]", "result": 0.0, "unit": "%"},
      {"measurement": "Friability", "setting": "[3]; [19]", "result": 0.0, "unit": "%"},
      {"measurement": "Friability", "setting": "[3]; [20]", "result": 0.3, "unit": "%"},
      {"measurement": "Hardness", "setting": "[4]; [5]", "result": 7.9, "unit": "kP"},
      {"measurement": "Hardness", "setting": "[4]; [6]", "result": 8.1, "unit": "kP"},
      {"measurement": "Hardness", "setting": "[4]; [7]", "result": 8.1, "unit": "kP"},
      {"measurement": "Hardness", "setting": "[4]; [8]", "result": 7.6, "unit": "kP"},
      {"measurement": "Hardness", "setting": "[4]; [9]", "result": 9.3, "unit": "kP"},
      {"measurement": "Hardness", "setting": "[4]; [10]", "result": 8.6, "unit": "kP"},
      {"measurement": "Hardness", "setting": "[4]; [11]", "result": 8.0, "unit": "kP"},
      {"measurement": "Hardness", "setting": "[4]; [12]", "result": 6.5, "unit": "kP"},
      {"measurement": "Hardness", "setting": "[4]; [13]", "result": 8.5, "unit": "kP"},
      {"measurement": "Hardness", "setting": "[4]; [14]", "result": 6.8, "unit": "kP"},
      {"measurement": "Hardness", "setting": "[4]; [15]", "result": 9.1, "unit": "kP"},
      {"measurement": "Hardness", "setting": "[4]; [16]", "result": 7.5, "unit": "kP"},
      {"measurement": "Hardness", "setting": "[4]; [17]", "result": 7.2, "unit": "kP"},
      {"measurement": "Hardness", "setting": "[4]; [18]", "result": 7.9, "unit": "kP"},
      {"measurement": "Hardness", "setting": "[4]; [19]", "result": 5.7, "unit": "kP"},
      {"measurement": "Hardness", "setting": "[4]; [20]", "result": 4.2, "unit": "kP"}
    ]}
  ]
}
